Measured values taken from patent US10040781B2, “Tank-binding kinase inhibitor compounds” (Gilead Sciences, Inc., priority 2014, dated 2018).

Columns and labels:
hJAK2 = hJAK2 (Homo sapiens (Human), UniProt O60674); assay: hJAK2 LANCE TR-FRET enzymatic assay; format: biochemical; settings: read-out: JAK2 IC50
IKKε = IKKε (Homo sapiens (Human), UniProt Q14164); assay: IKKε TR-FRET enzymatic assay; format: biochemical; settings: read-out: IKKe IC50
TBK1 = TBK1 (Homo sapiens (Human), UniProt Q9UHD2); assay: TBK1 TR-FRET enzymatic assay;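 further: phosphorylation of a biotinylated Ser/Thr peptide by purified full-length recombinant TBK1, read by TR-FRET after 240 min at 25 °C, IC50 is the geometric mean of at least four runs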
Chain of TBK1 (Q9UHD2 whole entry): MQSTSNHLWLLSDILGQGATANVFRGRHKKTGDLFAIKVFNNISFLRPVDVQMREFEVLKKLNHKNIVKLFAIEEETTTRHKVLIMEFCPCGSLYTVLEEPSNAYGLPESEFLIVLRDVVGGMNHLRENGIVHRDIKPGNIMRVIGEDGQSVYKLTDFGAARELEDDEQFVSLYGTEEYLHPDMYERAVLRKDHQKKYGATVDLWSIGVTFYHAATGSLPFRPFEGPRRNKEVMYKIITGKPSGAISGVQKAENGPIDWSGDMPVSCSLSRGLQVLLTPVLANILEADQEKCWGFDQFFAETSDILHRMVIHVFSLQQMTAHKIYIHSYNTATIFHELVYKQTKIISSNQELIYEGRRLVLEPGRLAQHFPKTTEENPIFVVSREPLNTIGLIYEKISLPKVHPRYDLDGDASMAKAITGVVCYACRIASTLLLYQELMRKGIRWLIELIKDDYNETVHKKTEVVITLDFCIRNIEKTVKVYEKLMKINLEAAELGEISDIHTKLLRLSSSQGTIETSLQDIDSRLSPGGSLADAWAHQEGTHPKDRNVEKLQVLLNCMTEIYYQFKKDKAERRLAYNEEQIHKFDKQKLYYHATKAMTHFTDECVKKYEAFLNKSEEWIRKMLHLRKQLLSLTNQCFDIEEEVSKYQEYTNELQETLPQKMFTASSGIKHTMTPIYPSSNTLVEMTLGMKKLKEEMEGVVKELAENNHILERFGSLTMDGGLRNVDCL

Chain of hJAK2 (O60674 whole entry): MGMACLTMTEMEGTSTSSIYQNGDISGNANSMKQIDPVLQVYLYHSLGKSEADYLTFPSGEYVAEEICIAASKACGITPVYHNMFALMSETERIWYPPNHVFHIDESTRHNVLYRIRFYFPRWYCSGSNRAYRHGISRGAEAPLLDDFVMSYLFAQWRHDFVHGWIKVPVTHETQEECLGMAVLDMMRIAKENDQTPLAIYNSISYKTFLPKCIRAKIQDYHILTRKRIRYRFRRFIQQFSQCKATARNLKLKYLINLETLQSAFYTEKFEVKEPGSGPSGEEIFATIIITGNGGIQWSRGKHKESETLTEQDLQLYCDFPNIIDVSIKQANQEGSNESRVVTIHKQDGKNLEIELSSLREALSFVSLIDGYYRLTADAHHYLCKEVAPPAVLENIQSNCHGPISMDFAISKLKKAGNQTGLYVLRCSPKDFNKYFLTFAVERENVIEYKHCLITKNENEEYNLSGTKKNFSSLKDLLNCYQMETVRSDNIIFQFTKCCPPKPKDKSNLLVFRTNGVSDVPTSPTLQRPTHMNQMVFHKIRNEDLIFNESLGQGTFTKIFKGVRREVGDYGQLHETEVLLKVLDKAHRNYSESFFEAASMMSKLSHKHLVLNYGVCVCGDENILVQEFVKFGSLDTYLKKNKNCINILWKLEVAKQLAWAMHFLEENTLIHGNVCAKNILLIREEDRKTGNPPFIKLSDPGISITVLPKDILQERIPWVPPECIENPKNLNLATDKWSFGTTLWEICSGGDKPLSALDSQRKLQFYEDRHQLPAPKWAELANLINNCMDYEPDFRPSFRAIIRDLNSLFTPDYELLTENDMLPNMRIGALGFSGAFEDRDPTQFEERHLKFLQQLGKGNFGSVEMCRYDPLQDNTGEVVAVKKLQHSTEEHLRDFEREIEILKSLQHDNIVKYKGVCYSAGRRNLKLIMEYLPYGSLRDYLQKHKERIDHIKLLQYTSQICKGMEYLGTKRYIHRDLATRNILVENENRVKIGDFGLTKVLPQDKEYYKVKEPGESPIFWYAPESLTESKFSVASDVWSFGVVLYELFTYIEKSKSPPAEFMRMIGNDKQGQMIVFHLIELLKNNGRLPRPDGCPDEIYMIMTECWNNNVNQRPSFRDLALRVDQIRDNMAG
Chain of IKKε (Q14164 whole entry): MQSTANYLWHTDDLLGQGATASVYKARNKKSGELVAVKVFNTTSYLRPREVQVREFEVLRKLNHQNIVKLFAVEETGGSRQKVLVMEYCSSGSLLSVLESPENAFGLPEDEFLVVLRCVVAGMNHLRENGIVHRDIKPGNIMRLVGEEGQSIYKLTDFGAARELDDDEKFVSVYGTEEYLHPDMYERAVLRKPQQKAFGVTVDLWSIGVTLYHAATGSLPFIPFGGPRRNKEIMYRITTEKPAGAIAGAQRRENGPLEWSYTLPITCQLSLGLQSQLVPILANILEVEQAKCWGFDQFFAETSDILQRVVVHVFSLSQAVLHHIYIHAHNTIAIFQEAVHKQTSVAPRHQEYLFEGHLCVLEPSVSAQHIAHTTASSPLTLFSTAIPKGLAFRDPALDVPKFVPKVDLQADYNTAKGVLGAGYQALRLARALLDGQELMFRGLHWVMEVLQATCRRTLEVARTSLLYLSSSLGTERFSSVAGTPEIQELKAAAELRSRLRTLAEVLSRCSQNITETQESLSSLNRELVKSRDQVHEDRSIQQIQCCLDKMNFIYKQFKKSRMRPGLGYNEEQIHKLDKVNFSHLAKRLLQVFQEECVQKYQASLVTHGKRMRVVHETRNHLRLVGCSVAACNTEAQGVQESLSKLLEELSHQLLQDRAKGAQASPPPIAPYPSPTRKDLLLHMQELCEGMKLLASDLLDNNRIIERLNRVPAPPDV

Structure (SMILES)	IC50 (hJAK2) [nM]	IC50 (IKKε) [nM]	IC50 (TBK1) [nM]
N#Cc1cc(-c2ncnc(Nc3ccc(N4CCN(C5COC5)CC4)cc3)n2)ccc1N1CC[C@@H](O)C1 [Example 202, (R)-2-(3-hydroxypyrrolidin-1-yl)-5-(4-((4-(4-(oxetan-3-yl)piperazin-1-yl)phenyl)amino)-1,3,5-triazin-2-yl)benzonitrile]	192	13	3
N#Cc1cc(-c2ncnc(Nc3ccc(N4CCN(C5COC5)CC4)cc3)n2)ccc1N1CC[C@H](O)C1 [Example 203, (S)-2-(3-hydroxypyrrolidin-1-yl)-5-(4-((4-(4-(oxetan-3-yl)piperazin-1-yl)phenyl)amino)-1,3,5-triazin-2-yl)benzonitrile]	315	27	7
C[C@@H]1C[C@@H](O)CN1c1ccc(-c2ncnc(Nc3ccc(N4CCN(C5COC5)CC4)cc3)n2)cc1C#N [Example 204, 2-((2R,4R)-4-hydroxy-2-methylpyrrolidin-1-yl)-5-(4-((4-(4-(oxetan-3-yl)piperazin-1-yl)phenyl)amino)-1,3,5-triazin-2-yl)benzonitrile]	47	18	1
C[C@H]1C[C@@H](O)CN1c1ccc(-c2ncnc(Nc3ccc(N4CCN(C5COC5)CC4)cc3)n2)cc1C#N [Example 205, 2-((2S,4R)-4-hydroxy-2-methylpyrrolidin-1-yl)-5-(4-((4-(4-(oxetan-3-yl)piperazin-1-yl)phenyl)amino)-1,3,5-triazin-2-yl)benzonitrile]	51	17	1
N#Cc1cc(-c2ncnc(Nc3ccc(N4CCN(C5COC5)CC4)cc3)n2)ccc1N1CCC2(COC2)C1 [Example 206, 5-(4-((4-(4-(oxetan-3-yl)piperazin-1-yl)phenyl)amino)-1,3,5-triazin-2-yl)-2-(2-oxa-6-azaspiro[3.4]octan-6-yl)benzonitrile]	236	20	12
N#Cc1cc(-c2ncnc(Nc3ccc(N4CCN(C5COC5)CC4)cc3)n2)ccc1N1CCC2(CCO2)C1 (stereo not drawn) [Example 207, 5-(4-((4-(4-(oxetan-3-yl)piperazin-1-yl)phenyl)amino)-1,3,5-triazin-2-yl)-2-(1-oxa-6-azaspiro[3.4]octan-6-yl)benzonitrile]	258	128	38
N#Cc1cc(-c2ncnc(Nc3ccc(N4CCN(C5COC5)CC4)cc3)n2)ccc1N1CCC2(C1)OCCO2 [Example 208, 5-(4-((4-(4-(oxetan-3-yl)piperazin-1-yl)phenyl)amino)-1,3,5-triazin-2-yl)-2-(1,4-dioxa-7-azaspiro[4.4]nonan-7-yl)benzonitrile]	330	283	64
N#Cc1cc(-c2ncnc(Nc3ccc(N4CCN(C5COC5)CC4)cc3)n2)ccc1N1CC2(CCO2)C1 [Example 210, 5-(4-((4-(4-(oxetan-3-yl)piperazin-1-yl)phenyl)amino)-1,3,5-triazin-2-yl)-2-(1-oxa-6-azaspiro[3.3]heptan-6-yl)benzonitrile]	354	71	26
N#Cc1cc(-c2ncnc(Nc3ccc(N4CCN(C5COC5)CC4)cc3)n2)ccc1N1CC2(CCOCC2)C1 [Example 211, 5-(4-((4-(4-(oxetan-3-yl)piperazin-1-yl)phenyl)amino)-1,3,5-triazin-2-yl)-2-(7-oxa-2-azaspiro[3.5]nonan-2-yl)benzonitrile]	170	22	6
N#Cc1cc(-c2ncnc(Nc3ccc(N4CCN(C5COC5)CC4)cc3)n2)ccc1N1CCC2(CCOCC2)C1 [Example 212, 5-(4-((4-(4-(oxetan-3-yl)piperazin-1-yl)phenyl)amino)-1,3,5-triazin-2-yl)-2-(8-oxa-2-azaspiro[4.5]decan-2-yl)benzonitrile]	137	63	29
N#Cc1cc(-c2ncnc(Nc3ccc(N4CCN(C5COC5)CC4)cc3)n2)ccc1N1CCC2(CCOC2)CC1 [Example 213, 5-(4-((4-(4-(oxetan-3-yl)piperazin-1-yl)phenyl)amino)-1,3,5-triazin-2-yl)-2-(2-oxa-8-azaspiro[4.5]decan-8-yl)benzonitrile]	≥ 1000	14	3
N#Cc1cc(-c2ncnc(Nc3ccc(N4CCN(C5COC5)CC4)cc3)n2)ccc1N1CCC2(CCO2)CC1 [Example 214, 5-(4-((4-(4-(oxetan-3-yl)piperazin-1-yl)phenyl)amino)-1,3,5-triazin-2-yl)-2-(1-oxa-7-azaspiro[3.5]nonan-7-yl)benzonitrile]	301	43	12
N#Cc1cccc(-c2ncnc(Nc3ccc(N4CCN(C5COC5)CC4)cc3)n2)c1 [Example 215, 3-(4-((4-(4-(oxetan-3-yl)piperazin-1-yl)phenyl)amino)-1,3,5-triazin-2-yl)benzonitrile]	657	≥ 1000	1000
N#Cc1cc(-c2ncnc(Nc3ccc(N4CCN(C5COC5)CC4)cc3)n2)ccc1OC1CCCCC1 [Example 217, 2-(cyclohexyloxy)-5-(4-((4-(4-(oxetan-3-yl)piperazin-1-yl)phenyl)amino)-1,3,5-triazin-2-yl)benzonitrile]	980	14	4
C[C@@H](O)C(=O)N1CCC(Oc2ccc(-c3ncnc(Nc4ccc(N5CCN(C6COC6)CC5)cc4)n3)cc2C#N)CC1 [Example 219, (R)-2-((1-(2-hydroxypropanoyl)piperidin-4-yl)oxy)-5-(4-((4-(4-(oxetan-3-yl)piperazin-1-yl)phenyl)amino)-1,3,5-triazin-2-yl)benzonitrile]	626	126	44
C[C@H]1C[C@H](Oc2ccc(-c3ncnc(Nc4ccc(N5CCN(C6COC6)CC5)cc4)n3)cc2C#N)CCN1C(=O)CO [Example 221, 2-(((2S,4R)-1-(2-hydroxyacetyl)-2-methylpiperidin-4-yl)oxy)-5-(4-((4-(4-(oxetan-3-yl)piperazin-1-yl)phenyl)amino)-1,3,5-triazin-2-yl)benzonitrile]	488	68	18
C[C@@H]1C[C@H](Oc2ccc(-c3ncnc(Nc4ccc(N5CCN(C6COC6)CC5)cc4)n3)cc2C#N)CCN1C(=O)CO [Example 222, 2-(((2R,4R)-1-(2-hydroxyacetyl)-2-methylpiperidin-4-yl)oxy)-5-(4-((4-(4-(oxetan-3-yl)piperazin-1-yl)phenyl)amino)-1,3,5-triazin-2-yl)benzonitrile]	182	60	21
C[C@H](O)C(=O)N1CCC(Oc2ccc(-c3ncnc(Nc4ccc(N5CCO[C@@H](CO)C5)cc4)n3)cc2C#N)CC1 [Example 225, 5-(4-((4-((R)-2-(hydroxymethyl)morpholino)phenyl)amino)-1,3,5-triazin-2-yl)-2-((1-((S)-2-hydroxypropanoyl)piperidin-4-yl)oxy)benzonitrile]	≥ 1000	22	8
N#Cc1cc(-c2ncnc(Nc3ccc(N4CCO[C@@H](CO)C4)cc3)n2)ccc1OC1CCNCC1(F)F (stereo partly drawn) [Example 226, 2-((3,3-difluoropiperidin-4-yl)oxy)-5-(4-((4-((R)-2-(hydroxymethyl)morpholino)phenyl)amino)-1,3,5-triazin-2-yl)benzonitrile]	311	29	5
